Reference: ChEMBL document CHEMBL4270495, “Oleanane-, ursane-, and quinone methide friedelane-type triterpenoid derivatives: Recent advances in cancer treatment” (Eur J Med Chem, 2017)

Experiments:
[1] = test system: MDA-MB-231; test: Antiproliferative activity in human MDA-MB-231 cells assessed as reduction in cell viability incubated for 24 to 72 hrs by MTT assay; format: functional, cell-based
[2] = test system: MDA-MB-231; test: Inhibition of cell invasion in human MDA-MB-231 cells; format: functional
[3] = test system: MCF7; test: Cytotoxicity in human MCF7 cells assessed as reduction in cell viability incubated for 24 hrs by MTT assay; format: functional, cell-based; conditions: MCF7, 24 h
[4] = test system: A549; test: Cytotoxicity in human A549 cells assessed as reduction in cell viability incubated for 24 hrs by MTT assay; format: functional, cell-based; conditions: A549, 24 h
[5] = test system: A549; test: Potency index, ratio of IC50 for Iressa to IC50 for test compound for cytotoxicity in human A549 cells assessed as reduction in cell viability incubated for 24 hrs by MTT assay; format: functional
[6] = test system: HeLa; test: Cytotoxicity in human HeLa cells assessed as reduction in cell viability incubated for 48 hrs by MTT assay; format: functional, cell-based
[7] = test system: HepG2; test: Cytotoxicity in human HepG2 cells assessed as reduction in cell viability incubated for 48 hrs by MTT assay; format: functional, cell-based; conditions: HepG2, 48 h
[8] = test system: BGC-823; test: Cytotoxicity in human BGC823 cells assessed as reduction in cell viability incubated for 48 hrs by MTT assay; format: functional, cell-based; conditions: BGC-823, 48 h
[9] = test system: HepG2; test: Cytotoxicity in human HepG2 cells assessed as reduction in cell viability incubated for 72 hrs by MTT assay; format: functional, cell-based; conditions: HepG2, 72 h
[10] = test system: HT-29; test: Cytotoxicity in human HT-29 cells assessed as reduction in cell viability incubated for 72 hrs by MTT assay; format: functional, cell-based; conditions: HT-29, 72 h
[11] = test system: B16-F10; test: Cytotoxicity in mouse B16F10 cells assessed as reduction in cell viability incubated for 72 hrs by MTT assay; format: functional, cell-based; conditions: B16-F10, 72 h
[12] = test system: SGC-7901; test: Cytotoxicity in human SGC7901 cells assessed as reduction in cell viability incubated for 48 hrs by MTT assay; format: functional, cell-based; conditions: SGC-7901, 48 h
[13] = test system: SMMC-7721; test: Cytotoxicity in human SMMC7721 cells assessed as reduction in cell viability incubated for 48 hrs by MTT assay; format: functional, cell-based; conditions: SMMC-7721, 48 h
[14] = test system: HMEC; test: Cytotoxicity in human HMEC cells assessed as reduction in cell viability incubated for 48 hrs by SRB assay; format: cell-based
[15] = Cytotoxicity in human HELF cells assessed as reduction in cell viability incubated for 24 hrs by MTT assay; format: cell-based
[16] = Cytotoxicity in human […] cells assessed as reduction in cell viability incubated for 72 hrs by MTT assay; format: functional, cell-based
[17] = test system: AGS; test: Cytotoxicity in human AGS cells assessed as reduction in cell viability incubated for 24 hrs by MTT assay; format: functional, cell-based
[18] = test system: MCF7; test: Cytotoxicity in human MCF7 cells assessed as reduction in cell viability incubated for 48 hrs by SRB assay; format: functional, cell-based; conditions: MCF7, 48 h
[19] = test system: MDA-MB-231; test: Cytotoxicity in human MDA-MB-231 cells assessed as reduction in cell viability incubated for 48 hrs by SRB assay; format: functional; conditions: MDA-MB-231, 48 h
[20] = test system: SGC-7901; test: Cytotoxicity in human SGC7901 cells assessed as reduction in cell viability incubated for 72 hrs by CCK8 assay; format: functional, cell-based; conditions: SGC-7901, 72 h
[21] = test system: A549; test: Cytotoxicity in human A549 cells assessed as reduction in cell viability incubated for 72 hrs by CCK8 assay; format: functional, cell-based; conditions: A549, 72 h
[22] = test system: HepG2; test: Cytotoxicity in human HepG2 cells assessed as reduction in cell viability incubated for 72 hrs by CCK8 assay; format: functional, cell-based; conditions: HepG2, 72 h
[23] = test system: HeLa; test: Cytotoxicity in human HeLa cells assessed as reduction in cell viability incubated for 72 hrs by CCK8 assay; format: functional, cell-based
[24] = test system: PC-3; test: Cytotoxicity in human PC3 cells assessed as reduction in cell viability incubated for 72 hrs by CCK8 assay; format: functional, cell-based; conditions: PC-3, 72 h
[25] = test system: MCF7; test: Cytotoxicity in human MCF7 cells assessed as reduction in cell viability incubated for 72 hrs by CCK8 assay; format: functional, cell-based; conditions: MCF7, 72 h
[26] = test system: A549; test: Cytotoxicity in human A549 cells assessed as reduction in cell viability incubated for 48 hrs by MTT assay; format: functional, cell-based; conditions: A549, 48 h
[27] = test system: T-24; test: Cytotoxicity in human T24 cells assessed as reduction in cell viability incubated for 48 hrs by MTT assay; format: functional, cell-based; conditions: T-24, 48 h
[28] = test system: HUVEC; test: Cytotoxicity in HUVEC cells assessed as reduction in cell viability incubated for 48 hrs by MTT assay; format: cell-based; conditions: Homo sapiens
[29] = Cytotoxicity in human SPCA2 cells assessed as reduction in cell viability incubated for 48 hrs by MTT assay; format: functional, cell-based; conditions: SPCA2, 48 h
[30] = test system: HeLa; test: Cytotoxicity in human HeLa cells assessed as reduction in cell viability; format: functional, cell-based
[31] = test system: BGC-823; test: Cytotoxicity in human BGC823 cells assessed as reduction in cell viability; format: functional, cell-based
[32] = test system: Hep 3B2; test: Cytotoxicity in human Hep3B cells assessed as reduction in cell viability incubated for 72 hrs by cell-titer Glo asay; format: functional, cell-based
[33] = test system: Huh-7; test: Cytotoxicity in human HuH7 cells assessed as reduction in cell viability incubated for 72 hrs by cell-titer Glo asay; format: functional, cell-based; conditions: Huh-7, 72 h
[34] = test system: HepG2; test: Cytotoxicity in human HepG2 cells assessed as reduction in cell viability incubated for 72 hrs by cell-titer Glo asay; format: functional, cell-based; conditions: HepG2, 72 h

In the case of `CC1(C)CC[C@]2(C(=O)O)CC[C@]3(C)C(=CC[C@@H]4[C@@]5(C)CC[C@H](OC(=O)NS(=O)(=O)c6ccc(F)cc6)C(C)(C)[C@@H]5CC[C@]43C)[C@@H]2C1`, the IC50 [1] is reported as 3.4 µM and the “inhibition (INH)” value [2] is reported as 72.5%.
In the case of `CC1(C)CC[C@]2(C(=O)O)CC[C@]3(C)C(=CC[C@@H]4[C@@]5(C)CC[C@H](O[C@@H]6OC[C@H](O)[C@H](O[C@H]7O[C@H](CO)[C@@H](O)[C@H](O)[C@@H]7O)[C@H]6O)[C@@](C)(CO)[C@@H]5CC[C@]43C)[C@H]2C1`, the IC50 [3] is reported as 19.3 µM, the IC50 [4] is reported as 6.6 µM and the “Ratio IC50” value [5] is reported as 4.
`CC(=O)O/N=C1\CC[C@]2(C)[C@H]3CC=C4[C@@H]5[C@@H](C)[C@H](C)CC[C@]5(C(=O)Nc5ccccc5C(=O)O)CC[C@@]4(C)[C@]3(C)CC[C@H]2C1(C)C` showed an IC50 [6] of 13.8 µM, an IC50 [7] of 23.7 µM and an IC50 [8] of 9.2 µM.
For `CCCC(=O)O[C@@H]1C[C@]2(C)[C@H]3CC=C4[C@@H]5CC(C)(C)CC[C@]5(C(=O)NCCCCCCCCCCC(=O)O)CC[C@@]4(C)[C@]3(C)CC[C@H]2C(C)(C)[C@H]1OC(=O)CCC`, the IC50 [9] was 27.6 µM, the IC50 [10] was 1.37 µM and the IC50 [11] was 5.7 µM.
For `CC1=C(O)C(=O)C=C2C1=CC=C1[C@@]2(C)CC[C@@]2(C)[C@@H]3C[C@](C)(C(=O)NCC(C)O)CC[C@]3(C)CC[C@]12C` (stereo not given in full), the IC50 [12] was 0.1 µM and the IC50 [13] was 0.61 µM.
`CC(=O)O[C@@H]1C[C@]2(C)[C@H]3CC=C4[C@@H]5CC(C)(C)CC[C@]5(C(=O)NCCCCCCCCCCC(=O)O)CC[C@@]4(C)[C@]3(C)CC[C@H]2C(C)(C)[C@H]1OC(C)=O` showed an IC50 [9] of 14.2 µM, an IC50 [10] of 3.1 µM and an IC50 [11] of 2.4 µM.
`C[C@H]1[C@H](C)CC[C@]2(C(=O)O)CC[C@]3(C)C(=CC[C@@H]4[C@@]5(C)CC[C@H](O)C(C)(C)[C@@H]5CC[C@]43C)[C@H]12` [URSOLIC ACID] gave an IC50 [14] of 39.3 µM, an IC50 [15] of 21.3 µM and an IC50 [16] of 26.5 µM. For the same compound, the IC50 [17] was 43.3 µM, the GI50 [18] was 21 µM and the GI50 [19] was 11.1 µM.
For `COC(=O)C1CCCN1C(=O)[C@]12CC[C@@H](C)[C@H](C)[C@H]1C1=CC[C@@H]3[C@@]4(C)C[C@@H](OC(C)=O)[C@H](OC(C)=O)[C@@](C)(COC(C)=O)[C@@H]4CC[C@@]3(C)[C@]1(C)CC2` (stereo not given in full), the IC50 [20] was 4.6 µM, the IC50 [21] was 2.4 µM and the IC50 [22] was 0.9 µM. For the same compound, the IC50 [23] was 4.8 µM, the IC50 [24] was 9.2 µM and the IC50 [25] was 4.5 µM.
For `C[C@H]1[C@H](C)CC[C@]2(C(=O)O)CC[C@]3(C)C(=CC[C@@H]4[C@@]5(C)C[C@@H](O)[C@H](O)[C@@](C)(CO)[C@@H]5CC[C@]43C)[C@H]12` [ASIATIC ACID], the IC50 [20] was 36.8 µM, the IC50 [21] was 18.8 µM and the IC50 [26] was 37.8 µM. The IC50 [27] was 33.7 µM, the IC50 [28] was greater than 100 µM and the IC50 [23] was 4 to 55.1 µM. The IC50 [29] was 39.4 µM, the GI50 [18] was 19.1 µM and the IC50 [24] was 53.6 µM. For the same compound, the IC50 [25] was 32.8 µM and the GI50 [19] was 18.1 µM.
`CCCC(=O)O[C@H]1CC[C@]2(C)[C@H]3CC=C4[C@@H]5[C@@H](C)[C@H](C)CC[C@]5(C(=O)N5CCOCC5)CC[C@@]4(C)[C@]3(C)CC[C@H]2C1(C)C` showed an IC50 [30] greater than 10 µM and an IC50 [31] of 9.7 µM.
`CC1=C(O)C(=O)C=C2C1=CC=C1[C@@]2(C)CC[C@@]2(C)[C@@H]3C[C@](C)(C(=O)OCc4ccccc4)CC[C@]3(C)CC[C@]12C` gave an IC50 [32] of 2.77 µM, an IC50 [33] of 2.15 µM and an IC50 [34] of 4.26 µM.
With `COC(=O)C(C)NC(=O)[C@]12CC[C@@H](C)[C@H](C)[C@H]1C1=CC[C@@H]3[C@@]4(C)C[C@@H](OC(C)=O)[C@H](OC(C)=O)[C@@](C)(COC(C)=O)[C@@H]4CC[C@@]3(C)[C@]1(C)CC2` (stereo not given in full) the IC50 [20] was 9.2 µM, the IC50 [21] was 3.1 µM and the IC50 [22] was 0.3 µM. For the same compound, the IC50 [23] was 5.1 µM, the IC50 [24] was 10.1 µM and the IC50 [25] was 3.9 µM.
